From ChEMBL document CHEMBL4610064, “DNA-Encoded Library Screening as Core Platform Technology in Drug Discovery: Its Synthetic Method Development and Applications in DEL Synthesis” (J Med Chem, 2020)
≈ marks a conversion by molar mass, not a printed value.

What was measured:
[1] = Aqueous solubility of the compound; format: physicochemical; settings: water
[2] = target: T1, Neuromedin-K receptor (Homo sapiens) (UniProt P29371); test: Antagonist activity at NK3 (unknown origin)
T1 sequence (whole entry): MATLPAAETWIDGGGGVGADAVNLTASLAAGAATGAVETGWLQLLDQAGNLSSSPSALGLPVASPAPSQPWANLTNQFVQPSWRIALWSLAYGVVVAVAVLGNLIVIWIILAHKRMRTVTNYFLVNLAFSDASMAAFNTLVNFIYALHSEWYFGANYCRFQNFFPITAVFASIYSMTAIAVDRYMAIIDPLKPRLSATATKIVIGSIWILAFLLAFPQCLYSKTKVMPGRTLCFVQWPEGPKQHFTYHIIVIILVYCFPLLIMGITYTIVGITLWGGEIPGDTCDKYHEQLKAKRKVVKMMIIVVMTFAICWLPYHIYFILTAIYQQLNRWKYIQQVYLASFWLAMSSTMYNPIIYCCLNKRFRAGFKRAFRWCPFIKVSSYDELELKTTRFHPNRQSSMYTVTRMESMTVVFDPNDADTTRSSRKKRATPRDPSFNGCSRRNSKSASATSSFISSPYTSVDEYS

[3] = target: Substance-P receptor (Homo sapiens) (UniProt P25103); test: Antagonist activity at NK1 (unknown origin)
Chain of Substance-P receptor (Homo sapiens) (P25103 whole entry): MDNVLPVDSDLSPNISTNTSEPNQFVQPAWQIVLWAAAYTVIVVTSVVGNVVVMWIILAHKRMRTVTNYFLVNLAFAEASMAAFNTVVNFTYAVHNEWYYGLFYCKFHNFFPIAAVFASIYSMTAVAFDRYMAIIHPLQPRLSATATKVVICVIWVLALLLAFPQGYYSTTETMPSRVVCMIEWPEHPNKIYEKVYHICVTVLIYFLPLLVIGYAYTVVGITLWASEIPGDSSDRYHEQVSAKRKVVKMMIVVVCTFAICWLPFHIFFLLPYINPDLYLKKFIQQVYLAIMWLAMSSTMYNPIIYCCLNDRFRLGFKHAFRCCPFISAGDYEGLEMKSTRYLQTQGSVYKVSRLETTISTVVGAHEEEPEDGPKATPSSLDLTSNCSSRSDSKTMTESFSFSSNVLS

[4] = target: T2, Substance-K receptor (Homo sapiens) (UniProt P21452); test: Antagonist activity at NK2 (unknown origin)
T2 sequence (whole entry): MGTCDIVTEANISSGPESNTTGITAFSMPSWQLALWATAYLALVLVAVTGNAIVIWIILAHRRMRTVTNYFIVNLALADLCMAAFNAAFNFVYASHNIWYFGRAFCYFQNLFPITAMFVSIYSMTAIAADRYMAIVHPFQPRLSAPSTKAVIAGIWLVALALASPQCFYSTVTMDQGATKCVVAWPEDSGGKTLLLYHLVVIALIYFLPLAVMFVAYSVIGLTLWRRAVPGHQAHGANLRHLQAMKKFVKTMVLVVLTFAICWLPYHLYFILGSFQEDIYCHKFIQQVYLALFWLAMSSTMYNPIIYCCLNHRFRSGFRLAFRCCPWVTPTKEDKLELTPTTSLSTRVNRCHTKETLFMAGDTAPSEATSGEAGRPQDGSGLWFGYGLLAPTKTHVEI

Compound	solubility [1] [µg/mL]	fKi [2] [nM]	fKi [3] [nM]	fKi [4] [nM]
O=C(CN1C(=O)C2(CCN(C(=O)c3ccc4[nH]ncc4n3)CC2)c2c(Br)cccc21)NCC(F)(F)F	103 (≈ 182 µM)			
Cn1c(-c2c[nH]c3cc(C#N)ccc23)nc2cc(C(=O)N3CCOC(c4ccccc4)C3CO)ccc21 (stereo not drawn)		1.2	> 1000	> 1000
CNC(=O)CN1CN(c2ccccc2)C2(CCN(C(=O)c3ccc4[nH]ncc4c3)CC2)C1=O	1.4 (≈ 3.14 µM)			
CCn1c(-c2ccccc2-c2ccc(C)cc2C)nc2cc(C(=O)NC)ccc21		1.2	> 1000	> 1000
